# Source: patent US20250381242A1 (INVAIO SCIENCES, INC., priority 2024, published 2025)
# Residues, ends and D or L forms follow the SMILES beside them. No end group written: not given here.
# What was measured:
# A. tumefaciens = conditions: 24 h, 10 μM
# E. amylovora = conditions: 24 h, 10 μM
# L. crescens = conditions: 10 μM
# X. citri = experiment: Bacterial growth inhibition by OD600 absorbance, X. citri; format: cell-based, X. citri subsp. citri (ATCC 49118); conditions: peptide 10 μM, 24 hours at 30° C., OD 600 nm
# Protocol: (§1) Antimicrobial activity of antimicrobial peptides was tested against the agricultural microbial pests A. tumefaciens, E. amylovora, E. coli, and X. citri, using OD absorbance measurement to detect bacterial growth.
# (§2) Antimicrobial peptides were synthesized using solid phase peptide synthesis method and resuspended in 10% DMSO to a 1 mM stock concentration. The stock solution was aliquoted in cryovials and stored at −80° C.
# (§3) An aliquot of 198 μl of the bacterial culture was added to each well in a 96-well plate and 2 μl of a 1 mM peptide stock solution was added to each well, for a final treatment concentration of 10 μM of a given peptide. Media only wells were included to control for contamination. The positive controls were 50 μg/ml oxytetracycline hydrochloride and 500 μg/ml streptomycin sulfate. A 0.1% DMSO treatment was included as a negative control.
# (§4) An initial absorbance reading of the bacterial suspensions was taken at 600 nm. Then, the bacteria were grown in an incubator at 30° C. (A. tumefaciens, E. amylovora, X. citri) or 37° C. (E. coli) for 24 hours, after which the final absorbance reading was measured. Using the initial and final absorbance reading compared to negative and positive controls, the percent inhibition of the bacterial strain by given peptide treatment was determined.
# E. coli = experiment: Bacterial growth inhibition by OD600 absorbance, E. coli; format: cell-based, E. coli (DH5-alpha); conditions: peptide 10 μM, 24 hours at 37° C., OD 600 nm
# Protocol: as §1, §2, §3, §4
Compound,"growth inhibition, A. tumefaciens (A. tumefaciens)","growth inhibition, E. amylovora (E. amylovora)","growth inhibition, L. crescens (L. crescens)","growth inhibition, X. citri (X. citri) [%]","growth inhibition, E. coli (E. coli) [%]"
CSCC[C@H](NC(=O)CNC(=O)[C@H](C)NC(=O)[C@H](CCC(=O)O)NC(=O)[C@H](CCCCN)NC(=O)[C@H](C)NC(=O)[C@@H](NC(=O)CNC(=O)[C@H](CCCCN)NC(=O)[C@H](CC(C)C)NC(=O)[C@H](CC(C)C)NC(=O)[C@H](CC(=O)O)NC(=O)CNC(=O)[C@H](Cc1ccccc1)NC(=O)[C@H](C)NC(=O)CN)C(C)C)C(=O)N[C@@H](CCCCN)C(=O)N[C@@H](CC(C)C)C(=O)N[C@@H](CC(C)C)C(=O)N[C@@H](CC(N)=O)C(=O)N[C@@H](CCSC)C(=O)N[C@@H](C)C(=O)N[C@@H](CCC(N)=O)C(=O)N[C@@H](CS)C(=O)N[C@@H](CCCCN)C(=O)N[C@@H](CC(C)C)C(=O)N[C@@H](CO)C(=O)NCC(=O)N[C@@H](CCCCN)C(=O)N[C@@H](CS)C(=O)O [compound 19] (H-GAFGDLLKGVAKEAGMKLLNMAQCKLSGKC-OH; N-terminus and C-terminus assumed),<90%,<90%,<90%,–,–
AFWKKFFKKFFKSAKKFG [compound 67],99.57%,100.00%,<90%,100.00,100.00
AIWKKIIKKIIKSAKKIG [compound 78],100.00%,100.00%,<90%,100.00,<90
ALWKTLLKHVGKAAGKAALNAVTDMVNQ [compound 25],100.00%,100.00%,<90%,100.00,100.00
AWKETIRKYLKNEIKKKWRKAVIAW [compound 14],100.00%,100.00%,<90%,100.00,100.00
FFRNLWKGAKAAFRAGHAAWRA [compound 41],100.00%,100.00%,<90%,100.00,<90
FKRLEKLFKKIWNWK [compound 79],100.00%,100.00%,<90%,100.00,<90
FQRYFHRYARFLAKIWKG [compound 62],100.00%,100.00%,<90%,100.00,<90
FRIRVRVKWKLFKKI [compound 81],100.00%,100.00%,<90%,<90,100.00
GANALKKYFTILKKFFKLAW [compound 61],<90%,<90%,<90%,<90,100.00
GFGTILKALAKIAGKVVKKLATKPGATYMLKENLK [compound 7],100.00%,100.00%,<90%,100.00,100.00
GIGKFLHSAKKFGKAFVGEIMNSKKKKKKKKKK [compound 5],98.68%,<90%,<90%,100.00,<90
GIGKLFLHAAKKFAKAFVAEKMNS [compound 36],100.00%,100.00%,<90%,100.00,<90
GIKDLLKGAAKALVKTVLK [compound 87],98.43%,<90%,<90%,<90,<90
GIKIAKKAITIAKKIAKIYW [compound 69],100.00%,100.00%,<90%,100.00,93.16
GIKKFLKSAKKFVKAFK [compound 86],98.88%,100.00%,<90%,<90,<90
GILKTIKSIASKLKRKAK [compound 85],<90%,99.65%,<90%,<90,<90
GILKTIKSIASKVANTVQKLKRKAKNAVA [compound 20],100.00%,100.00%,<90%,100.00,99.03

Compound,"growth inhibition, A. tumefaciens (A. tumefaciens)","growth inhibition, E. amylovora (E. amylovora)","growth inhibition, L. crescens (L. crescens)","growth inhibition, X. citri (X. citri) [%]","growth inhibition, E. coli (E. coli) [%]"
GILSKLGKALKKAAKHAAKA [compound 82],<90%,100.00%,<90%,<90,<90
GIMSSLMKKLKKIIAK [compound 99],98.76%,100.00%,<90%,<90,<90
GKLTKDKLKRGAKKALNVASKVAPIVAAGASIAR [compound 10],98.37%,100.00%,<90%,100.00,<90
GLLKKIAKKAKKALKKLGY [compound 74],100.00%,100.00%,<90%,100.00,<90
GLLKKWLKKWKEFKRIVGY [compound 57],99.99%,100.00%,<90%,100.00,100.00
GLLSNVAGLLKQFAKGGVNAVLNPK [compound 45],<90%,99.64%,<90%,100.00,<90
GLWSKIKKAAKTAGKAALGFVNKMV [compound 35],100.00%,100.00%,<90%,100.00,100.00
GLWSKIKTAGKSVAKAAAKAAVKAVTNAV [compound 28],100.00%,100.00%,<90%,100.00,100.00
GWWRRTVDKVRNAGRKVAGFASKACGALGH [SEQ ID NO: 13],greater than 90%,greater than 90%,greater than 90%,–,–
IWSFLIKAATKLLPSLFGGGKKDS [SEQ ID NO: 39],–,–,greater than 90%,–,–
KFWSLLKKALRLWANVL [SEQ ID NO: 76],greater than 90%,greater than 90%,greater than 90%,–,–
KKFLHSAKKWLKAFVKLFKNW [SEQ ID NO: 33],greater than 90%,–,greater than 90%,–,–
KWKSFIKNLEKVLKKGPILANLVSIV [SEQ ID NO: 23],greater than 90%,greater than 90%,greater than 90%,–,–
VRLRIRVRVIRK [compound 118],100.00%,100.00%,–,100.00,100.00
VRVKVRVKVRVK [compound 131],<90%,100.00%,–,<90,99.54
WKIKWKIKWKIK [compound 105],<90%,<90%,–,<90,<90
YSLQMGATAIKQVKKLFKKKGG [compound 56],<90%,<90%,–,<90,<90
